Consider 9 compounds from patent US10526291B2, “Potent dual BRD4-kinase inhibitors as cancer therapeutics” (H. Lee Moffitt Cancer Center and Research Institute, Inc., priority 2014, dated 2020).

In data set [1] the target is T1, BRD4 (Homo sapiens, UniProt O60885). The data set can be described thus: Differential Scanning Fluorimetry (DSF), stability of BRD4 upon ligand binding. As to conditions: for ΔTm at 4 µM: 100 μM protein, 4 μM compound and 2% DMSO; for IC50: estimated. How it is done:
(§1) DSF=Differential Scanning Fluorimetry; provides a measure of the increased stability of BRD4 upon ligand binding The DSF experiment was run at 100 μM protein, 4 μM compound and 2% DMSO.

The test system of data set [2] is HEK293. The data set is described as follows: HEK293 cell IC50. The class given is cell-based. As to conditions: Homo sapiens.
The subject of data set [3] is MM.1S cells. The data set can be described thus: MM.1S cell survival, MTT assay. The format is cell-based. As to conditions: Homo sapiens, MM1.S, 72 h, 72 hours compound exposure. (Tetrazolium assays rely on reduction of a dye to a coloured formazan, in cell work by metabolically active cells.)
The target of data set [4] is T2, BRD2 (Homo sapiens, UniProt P25440).
T2 construct: purchased
T2 sequence (P25440 whole entry): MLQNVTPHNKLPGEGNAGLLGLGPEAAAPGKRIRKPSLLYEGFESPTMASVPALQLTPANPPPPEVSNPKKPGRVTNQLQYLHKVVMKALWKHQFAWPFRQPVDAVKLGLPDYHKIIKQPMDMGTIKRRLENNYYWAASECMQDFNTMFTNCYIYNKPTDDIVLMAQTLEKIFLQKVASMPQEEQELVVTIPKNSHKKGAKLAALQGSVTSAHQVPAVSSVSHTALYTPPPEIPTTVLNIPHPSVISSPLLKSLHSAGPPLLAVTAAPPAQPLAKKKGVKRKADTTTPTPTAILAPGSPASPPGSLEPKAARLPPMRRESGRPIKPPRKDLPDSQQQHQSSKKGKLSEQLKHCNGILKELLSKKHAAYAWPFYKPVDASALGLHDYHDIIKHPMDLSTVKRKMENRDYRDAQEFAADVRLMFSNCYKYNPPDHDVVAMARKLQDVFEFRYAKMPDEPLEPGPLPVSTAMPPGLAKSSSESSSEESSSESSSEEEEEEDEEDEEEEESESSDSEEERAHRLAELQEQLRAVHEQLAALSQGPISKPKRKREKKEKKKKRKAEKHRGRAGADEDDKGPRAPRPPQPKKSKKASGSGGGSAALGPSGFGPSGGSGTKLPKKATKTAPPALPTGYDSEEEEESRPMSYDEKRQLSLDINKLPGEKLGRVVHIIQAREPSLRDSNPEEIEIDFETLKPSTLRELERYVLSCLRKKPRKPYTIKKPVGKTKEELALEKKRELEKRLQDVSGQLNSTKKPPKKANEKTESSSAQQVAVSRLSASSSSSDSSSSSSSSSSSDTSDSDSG
The data set can be described thus: BRD2 IC50 (RB, commercial BRD panel). The class given is binding.

Data set [5] concerns the target T3, BRD3 (Homo sapiens, UniProt Q15059).
T3 construct: purchased
The data set is described as follows: BRD3 IC50 (RB, commercial BRD panel). The format is binding.

For data set [6], the target named is T1, BRD4. The data set can be described thus: BRD4 IC50 (RB, commercial BRD panel). The format is binding.
Data set [7] has as its target T4, BRDT (Homo sapiens, UniProt Q58F21).
T4 construct: purchased
The data set is described as follows: BRDT IC50 (RB, commercial BRD panel). The class given is binding.

In data set [8] the target is T5, JAK1 (Homo sapiens, UniProt P23458).
T5 construct: purchased
T5 sequence (P23458 whole entry): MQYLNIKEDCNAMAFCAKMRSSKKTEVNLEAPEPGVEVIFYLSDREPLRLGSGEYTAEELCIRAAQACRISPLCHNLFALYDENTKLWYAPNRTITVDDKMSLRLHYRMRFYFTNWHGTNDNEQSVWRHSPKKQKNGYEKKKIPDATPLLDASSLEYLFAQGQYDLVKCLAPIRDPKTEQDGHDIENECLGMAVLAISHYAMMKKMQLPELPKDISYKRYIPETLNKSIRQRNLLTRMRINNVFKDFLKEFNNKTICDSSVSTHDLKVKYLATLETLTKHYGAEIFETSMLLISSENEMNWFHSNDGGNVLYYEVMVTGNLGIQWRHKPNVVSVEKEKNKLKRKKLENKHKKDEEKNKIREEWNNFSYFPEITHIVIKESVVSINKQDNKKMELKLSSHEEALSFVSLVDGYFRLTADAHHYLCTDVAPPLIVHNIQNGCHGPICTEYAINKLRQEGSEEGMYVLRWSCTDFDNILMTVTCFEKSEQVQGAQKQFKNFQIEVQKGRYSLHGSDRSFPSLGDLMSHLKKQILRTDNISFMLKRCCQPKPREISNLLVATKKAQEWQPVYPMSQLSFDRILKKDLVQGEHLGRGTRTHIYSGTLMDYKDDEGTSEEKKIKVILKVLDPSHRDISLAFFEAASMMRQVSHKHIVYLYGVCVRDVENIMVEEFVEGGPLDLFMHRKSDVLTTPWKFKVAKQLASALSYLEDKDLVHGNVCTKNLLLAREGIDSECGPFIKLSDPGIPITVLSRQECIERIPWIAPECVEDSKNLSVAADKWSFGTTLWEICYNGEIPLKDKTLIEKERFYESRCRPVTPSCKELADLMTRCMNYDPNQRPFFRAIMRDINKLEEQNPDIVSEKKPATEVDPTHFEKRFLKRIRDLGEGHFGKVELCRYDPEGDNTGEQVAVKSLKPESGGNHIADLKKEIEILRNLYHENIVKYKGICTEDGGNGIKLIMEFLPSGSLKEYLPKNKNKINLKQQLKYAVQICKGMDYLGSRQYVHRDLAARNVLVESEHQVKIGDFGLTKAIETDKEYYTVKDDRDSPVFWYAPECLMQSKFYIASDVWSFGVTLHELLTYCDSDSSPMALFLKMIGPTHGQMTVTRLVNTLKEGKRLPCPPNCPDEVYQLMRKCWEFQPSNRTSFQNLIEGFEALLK
The data set can be described thus: JAK1 IC50 (RB, commercial kinase panel). The format is biochemical.

Data set [9] has as its target T6, JAK2 (Homo sapiens, UniProt O60674).
T6 construct: purchased
The data set can be described thus: JAK2 IC50 (RB, commercial kinase panel). The format is biochemical.

For data set [10], the target named is T7, JAK3 (Homo sapiens, UniProt P52333).
T7 construct: purchased
T7 sequence (P52333 1-1124): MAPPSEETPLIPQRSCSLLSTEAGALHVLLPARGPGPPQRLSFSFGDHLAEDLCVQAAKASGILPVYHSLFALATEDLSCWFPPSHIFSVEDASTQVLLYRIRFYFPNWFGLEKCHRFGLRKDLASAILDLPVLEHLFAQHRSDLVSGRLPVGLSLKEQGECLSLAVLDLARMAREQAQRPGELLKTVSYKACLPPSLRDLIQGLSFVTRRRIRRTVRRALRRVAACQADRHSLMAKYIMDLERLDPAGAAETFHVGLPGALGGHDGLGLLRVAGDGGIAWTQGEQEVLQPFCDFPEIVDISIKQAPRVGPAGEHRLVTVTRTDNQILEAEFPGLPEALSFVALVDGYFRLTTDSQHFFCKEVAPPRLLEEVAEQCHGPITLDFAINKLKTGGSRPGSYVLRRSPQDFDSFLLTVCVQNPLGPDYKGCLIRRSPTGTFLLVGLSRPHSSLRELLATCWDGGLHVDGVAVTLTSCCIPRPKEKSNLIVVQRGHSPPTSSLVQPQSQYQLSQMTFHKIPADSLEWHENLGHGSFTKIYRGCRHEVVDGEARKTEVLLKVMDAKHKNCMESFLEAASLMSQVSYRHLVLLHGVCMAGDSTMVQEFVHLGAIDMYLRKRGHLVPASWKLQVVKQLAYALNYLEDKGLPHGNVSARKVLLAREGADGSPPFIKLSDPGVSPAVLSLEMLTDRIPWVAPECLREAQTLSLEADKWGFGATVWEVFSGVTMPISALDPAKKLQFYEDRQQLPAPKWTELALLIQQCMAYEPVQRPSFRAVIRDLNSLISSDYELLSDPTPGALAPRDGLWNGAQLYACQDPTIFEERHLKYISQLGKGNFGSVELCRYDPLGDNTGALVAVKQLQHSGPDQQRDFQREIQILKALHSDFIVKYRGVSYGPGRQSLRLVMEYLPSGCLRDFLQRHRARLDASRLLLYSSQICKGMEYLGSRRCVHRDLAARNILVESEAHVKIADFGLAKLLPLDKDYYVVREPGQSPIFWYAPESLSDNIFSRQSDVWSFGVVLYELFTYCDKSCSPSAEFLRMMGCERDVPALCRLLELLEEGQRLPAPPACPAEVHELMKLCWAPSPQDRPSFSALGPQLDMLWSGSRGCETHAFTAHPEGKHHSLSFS
The data set is described as follows: JAK3 IC50 (RB, commercial kinase panel). The class given is biochemical.

The subject of data set [11] is SAOS-2. The data set is described as follows: SAOS-2 cell IC50. The format is cell-based. As to conditions: Homo sapiens.
The subject of data set [12] is UKE-1. The data set can be described thus: UKE-1 cell IC50. The class given is cell-based. Particulars: UKE1.
Data set [13] deals with T8, FLT3 (Homo sapiens, UniProt P36888).
T8 construct: purchased
T8 sequence (P36888 27-993): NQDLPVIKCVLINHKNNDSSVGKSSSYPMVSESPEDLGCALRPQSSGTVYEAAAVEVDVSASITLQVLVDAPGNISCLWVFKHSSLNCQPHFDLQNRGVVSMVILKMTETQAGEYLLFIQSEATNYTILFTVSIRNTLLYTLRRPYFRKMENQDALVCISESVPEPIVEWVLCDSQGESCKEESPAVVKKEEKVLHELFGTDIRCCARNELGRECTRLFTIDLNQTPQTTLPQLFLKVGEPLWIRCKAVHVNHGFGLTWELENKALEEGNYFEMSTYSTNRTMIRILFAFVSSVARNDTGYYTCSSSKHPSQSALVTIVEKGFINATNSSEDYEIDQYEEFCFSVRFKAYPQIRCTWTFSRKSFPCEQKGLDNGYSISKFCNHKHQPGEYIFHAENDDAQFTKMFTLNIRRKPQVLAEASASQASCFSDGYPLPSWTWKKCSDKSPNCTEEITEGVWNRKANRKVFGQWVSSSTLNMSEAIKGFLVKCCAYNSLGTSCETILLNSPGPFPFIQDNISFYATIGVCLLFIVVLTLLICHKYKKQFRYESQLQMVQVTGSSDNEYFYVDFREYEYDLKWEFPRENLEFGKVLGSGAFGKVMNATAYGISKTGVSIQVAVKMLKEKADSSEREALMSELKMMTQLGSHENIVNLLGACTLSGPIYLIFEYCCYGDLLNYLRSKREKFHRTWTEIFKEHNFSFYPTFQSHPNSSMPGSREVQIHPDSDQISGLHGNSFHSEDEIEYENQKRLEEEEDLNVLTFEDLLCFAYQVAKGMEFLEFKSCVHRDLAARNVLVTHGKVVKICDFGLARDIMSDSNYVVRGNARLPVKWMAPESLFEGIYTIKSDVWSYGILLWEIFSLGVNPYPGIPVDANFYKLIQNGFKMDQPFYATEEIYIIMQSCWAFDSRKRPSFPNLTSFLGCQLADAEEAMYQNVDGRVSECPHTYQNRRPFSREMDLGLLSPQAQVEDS
The data set is described as follows: FLT3 IC50 (RB, commercial kinase panel). The format is biochemical.

Data set [14] relates to MV4-11 AML cells. The data set is described as follows: MV-4-11 cell IC50 (antiproliferative activity). The format is cell-based. As to conditions: Homo sapiens. How it is done:
Cellular activity of promising compounds is assessed using MM.1S and MV4-11 AML cells using c-Myc levels as biomarker (6-12 hr treatment) and antiproliferative activity (48-72 hr treatment) as described (Ciceri et al., Dual kinase-bromodomain inhibitors for rationally designed polypharmacology. Nat Chem Biol 2014).

For data set [15], the system named is NCI-H2052. The data set is described as follows: NCI-H2052 cell IC50. The format is cell-based. Particulars: Homo sapiens.
The target of data set [16] is T9, BRD4-1 (Homo sapiens, UniProt O60885).
T9 construct: BRD4-1; purchased
The data set is described as follows: BRD4-1 IC50. The format is binding.

Data set [17] concerns the target T10, BRD4-2 (Homo sapiens, UniProt O60885).
T10 construct: BRD4-2; purchased
The data set is described as follows: BRD4-2 IC50. The class given is binding.

The target in data set [18] is T11, BRDT-1 (Homo sapiens, UniProt Q58F21).
T11 construct: BRDT-1; purchased
The data set is described as follows: BRDT-1 IC50. The format is binding.

Data set [19] is described as follows: Precipitation in DSF buffer. The format is physicochemical. Here is the method: as §1
Data set [20] in a line: Solubility in PBS buffer. The format is physicochemical.

≈ marks a conversion by molar mass, not a printed value. Where “and” joins values, the source holds several entries; their conditions need not be identical. Identical values can stand only once. Like-named read-outs stand apart in the source and are kept apart here. Where only a bound is given, the exact number is not on record here.

T3 sequence (Q15059 whole entry): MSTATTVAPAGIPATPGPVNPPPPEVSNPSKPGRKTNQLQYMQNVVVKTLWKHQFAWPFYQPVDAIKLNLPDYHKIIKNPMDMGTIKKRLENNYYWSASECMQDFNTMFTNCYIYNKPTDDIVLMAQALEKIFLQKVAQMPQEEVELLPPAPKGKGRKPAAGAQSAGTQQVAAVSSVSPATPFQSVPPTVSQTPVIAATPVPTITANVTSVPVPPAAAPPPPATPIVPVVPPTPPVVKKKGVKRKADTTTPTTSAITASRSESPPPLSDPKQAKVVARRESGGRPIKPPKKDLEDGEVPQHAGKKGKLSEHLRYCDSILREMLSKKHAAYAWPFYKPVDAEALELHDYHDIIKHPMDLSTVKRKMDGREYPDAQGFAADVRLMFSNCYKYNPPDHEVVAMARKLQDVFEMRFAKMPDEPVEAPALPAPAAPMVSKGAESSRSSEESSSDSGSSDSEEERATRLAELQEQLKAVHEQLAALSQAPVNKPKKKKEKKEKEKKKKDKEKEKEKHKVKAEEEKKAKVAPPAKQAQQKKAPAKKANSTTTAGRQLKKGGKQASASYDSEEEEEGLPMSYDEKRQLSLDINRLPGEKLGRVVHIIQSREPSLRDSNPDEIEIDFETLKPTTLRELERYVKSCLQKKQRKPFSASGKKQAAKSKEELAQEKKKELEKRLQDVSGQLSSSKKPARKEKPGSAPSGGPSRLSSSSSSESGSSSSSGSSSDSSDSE
T6 sequence (O60674 whole entry): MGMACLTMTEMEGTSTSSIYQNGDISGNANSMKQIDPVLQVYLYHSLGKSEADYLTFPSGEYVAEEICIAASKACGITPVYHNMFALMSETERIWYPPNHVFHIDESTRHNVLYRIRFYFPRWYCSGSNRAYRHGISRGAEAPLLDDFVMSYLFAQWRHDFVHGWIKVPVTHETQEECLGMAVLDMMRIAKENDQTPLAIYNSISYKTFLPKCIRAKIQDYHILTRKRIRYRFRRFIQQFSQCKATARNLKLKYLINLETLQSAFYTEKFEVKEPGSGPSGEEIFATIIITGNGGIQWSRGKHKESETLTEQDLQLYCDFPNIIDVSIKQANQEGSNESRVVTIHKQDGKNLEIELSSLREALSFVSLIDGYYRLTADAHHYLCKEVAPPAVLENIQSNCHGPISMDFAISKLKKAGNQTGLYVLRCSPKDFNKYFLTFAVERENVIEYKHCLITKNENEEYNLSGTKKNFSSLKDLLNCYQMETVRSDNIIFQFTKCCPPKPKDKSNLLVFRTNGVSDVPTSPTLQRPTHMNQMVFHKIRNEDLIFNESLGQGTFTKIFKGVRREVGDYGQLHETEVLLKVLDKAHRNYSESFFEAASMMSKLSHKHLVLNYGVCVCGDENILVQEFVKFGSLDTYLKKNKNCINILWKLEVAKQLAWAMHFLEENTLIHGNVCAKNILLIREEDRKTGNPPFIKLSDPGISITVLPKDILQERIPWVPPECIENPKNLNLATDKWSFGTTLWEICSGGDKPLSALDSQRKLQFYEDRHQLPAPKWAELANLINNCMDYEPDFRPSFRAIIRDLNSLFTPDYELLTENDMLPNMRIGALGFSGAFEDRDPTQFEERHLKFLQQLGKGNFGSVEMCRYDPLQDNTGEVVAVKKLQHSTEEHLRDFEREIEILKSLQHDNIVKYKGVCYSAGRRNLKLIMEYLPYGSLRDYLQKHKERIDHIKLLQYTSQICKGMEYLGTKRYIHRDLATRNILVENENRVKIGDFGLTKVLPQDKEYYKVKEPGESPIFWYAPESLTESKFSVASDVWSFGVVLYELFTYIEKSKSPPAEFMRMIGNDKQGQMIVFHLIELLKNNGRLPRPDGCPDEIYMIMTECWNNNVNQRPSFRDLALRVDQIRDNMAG

Usually ΔTm stands for the change in melting temperature against a reference sample. What is called IC50 is the concentration at which inhibition is half-maximal. Regarding `COc1cc(Nc2nc(Nc3ccc(N4CCN(C)CC4)cc3)ncc2C)ccc1Cl`, the ΔTm at 4 µM in [1] was 5.6 ± 0.082 °C. In addition, the IC50 was 290 nM in data set [1]; 380 nM in [2]; 420 nM in data set [3]; 2800 nM in data set [4]; 1140 nM in [5]; 617 nM in data set [6] (read-out: BRD4 IC50). Further, the IC50 in [6] (read-out: BRD4 IC50 (RB)) was 617 nM; in [7], 1400 nM; in data set [8], 1.83 nM; in data set [9], 0.69 nM; in data set [10], 9.06 nM.
On to `Cc1cnc(Nc2ccc(N3CCN(C)CC3)cc2)nc1Nc1cccc(NS(=O)(=O)C(C)(C)C)c1`, for which the ΔTm at 4 µM in data set [1] turned out to be 8.54 ± 0.088 °C. Also, the IC50 in data set [1] was 25 nM; in [2], 1200 nM; in [3] it was 400 nM; in [11], 184 nM; in data set [12], 260 nM; in data set [4], 625 nM. Besides, the IC50 in data set [5] was determined as 12.5 nM; in data set [6] (read-out: BRD4 IC50), 10.2 nM; in data set [7] it was 29.1 nM; in [8], 4.58 nM; in data set [10], 91.4 nM; in data set [13], 0.917 nM.
`Cc1cnc(Nc2ccc(N3CCN(C)CC3)c(F)c2)nc1Nc1cccc(NS(=O)(=O)C(C)(C)C)c1`: the ΔTm at 4 µM in [1] is 9.5 ± 0.14 °C. The IC50 in [1] is 14 nM and 3.9 nM; in [3] it was 160 nM; in [14] it was 26.8 nM; in data set [11] it was 133 nM; in data set [12], 200 nM; in data set [15], 1400 nM. Also, the IC50 came to 1.14 nM in data set [9]; 1.1 nM in data set [13]; 24.3 nM in data set [16]; 22 nM in data set [17]; 41.3 nM in data set [18].
Take `Cc1cnc(Nc2ccc(N3CCN(C)CC3)c(F)c2)nc1Nc1ccc(Cl)c(NS(=O)(=O)C(C)(C)C)c1`: the ΔTm at 4 µM in data set [1] came to 11 ± 0.04 °C. The IC50 was 4.8 nM and 1.3 nM in [1]; 59 nM in [3]; 53.2 nM in [14]; 320 nM in [11]; 294 nM in [12]; 2500 nM in data set [15]. Also, the IC50 in data set [13] was determined as 10.7 nM; in data set [16], 11.2 nM; in data set [17], 17.5 nM; in [18], 19 nM.
Consider `Cc1cnc(Nc2ccc(C(=O)NC3CCN(C)CC3)c(F)c2)nc1Nc1ccc(Cl)c(NS(=O)(=O)C(C)(C)C)c1`, for which, in data set [1], the thermal shift (ΔTm) at 4 µM was 12.5 ± 0.165 °C. Besides, the IC50 was 1.3 nM in data set [1]; 38 nM in [14]; 220 nM in data set [12]; above 10000 nM in data set [15]; 10 nM in [16]; 23 nM in data set [18].
With `CN1CCN(c2ccc(Nc3ncc(F)c(Nc4ccc(Cl)c(NS(=O)(=O)C(C)(C)C)c4)n3)cc2F)CC1`, in data set [1], the ΔTm at 4 µM is 0.57 ± 0.124 °C and the IC50 is 16800 nM. In data set [3], this compound yielded an IC50 of 160 nM. Further, the “Precipitation in DSF buffer” value in data set [19] is reported as “Precipitation observed in DSF buffer”.
For `CN1CCN(c2ccc(Nc3ncc(Cl)c(Nc4ccc(Cl)c(NS(=O)(=O)C(C)(C)C)c4)n3)cc2F)CC1`, in data set [1], the ΔTm at 4 µM was determined as 5.22 ± 0.065 °C. Further, the IC50 was 835 nM in data set [1] and 110 nM in data set [3]. The “Precipitation in DSF buffer” value in [19] was “Precipitation observed in DSF buffer”.
`Cc1cnc(Nc2ccc(N3CCN(C)CC3)c(C(F)(F)F)c2)nc1Nc1ccc(Cl)c(NS(=O)(=O)C(C)(C)C)c1`: in data set [1], the ΔTm at 4 µM came to 2.46 ± 0.111 °C and the IC50 was 4950 nM. Moreover, the “Precipitation in DSF buffer” value in data set [19] is given as “Precipitation interferes with the assay”.
Usually Solubility stands for the dissolved amount per volume that the medium holds. As for `Cc1cnc(Nc2ccc(N3CCN(C)CC3)cc2)nc1Nc1ccc(Cl)c(NS(=O)(=O)C(C)(C)C)c1` [SG3-014B2.MSA], the Solubility result in data set [20] (PBS buffer (15% HPCD)) is “Solubility > 14.4 mg mg in 1 mL”; in [20] (PBS buffer (~9.3% DMSO)) it was “DMSO) = 0.416 mg mg in 1 mL”; in data set [20] (aqueous with cosolvent or surfactant or cyclodextrin, PBS buffer (~9.3% DMSO), read-out: Solubility) it was 650 µM (≈ 354 µg/mL).
